What is called Emax is the greatest response seen or fitted, relative to the assay's reference. As a reminder, the EC50 is the concentration that produces a half-maximal response. Low readings indicate higher potency in that assay, high ones lower potency in that assay. As a reminder, the Ki is the dissociation constant of the complex between target and ligand, obtained from inhibition or displacement. The low end stands for tighter binding, the high end for weaker binding.

Each structure is given as a SMILES string. Counter-ions that a name gives are not always drawn.

One data set deals with T1, human Slack (Homo sapiens, UniProt Q5JUK3).
T1 construct: host or cells: HEK293
T1 sequence (Q5JUK3 1-1230): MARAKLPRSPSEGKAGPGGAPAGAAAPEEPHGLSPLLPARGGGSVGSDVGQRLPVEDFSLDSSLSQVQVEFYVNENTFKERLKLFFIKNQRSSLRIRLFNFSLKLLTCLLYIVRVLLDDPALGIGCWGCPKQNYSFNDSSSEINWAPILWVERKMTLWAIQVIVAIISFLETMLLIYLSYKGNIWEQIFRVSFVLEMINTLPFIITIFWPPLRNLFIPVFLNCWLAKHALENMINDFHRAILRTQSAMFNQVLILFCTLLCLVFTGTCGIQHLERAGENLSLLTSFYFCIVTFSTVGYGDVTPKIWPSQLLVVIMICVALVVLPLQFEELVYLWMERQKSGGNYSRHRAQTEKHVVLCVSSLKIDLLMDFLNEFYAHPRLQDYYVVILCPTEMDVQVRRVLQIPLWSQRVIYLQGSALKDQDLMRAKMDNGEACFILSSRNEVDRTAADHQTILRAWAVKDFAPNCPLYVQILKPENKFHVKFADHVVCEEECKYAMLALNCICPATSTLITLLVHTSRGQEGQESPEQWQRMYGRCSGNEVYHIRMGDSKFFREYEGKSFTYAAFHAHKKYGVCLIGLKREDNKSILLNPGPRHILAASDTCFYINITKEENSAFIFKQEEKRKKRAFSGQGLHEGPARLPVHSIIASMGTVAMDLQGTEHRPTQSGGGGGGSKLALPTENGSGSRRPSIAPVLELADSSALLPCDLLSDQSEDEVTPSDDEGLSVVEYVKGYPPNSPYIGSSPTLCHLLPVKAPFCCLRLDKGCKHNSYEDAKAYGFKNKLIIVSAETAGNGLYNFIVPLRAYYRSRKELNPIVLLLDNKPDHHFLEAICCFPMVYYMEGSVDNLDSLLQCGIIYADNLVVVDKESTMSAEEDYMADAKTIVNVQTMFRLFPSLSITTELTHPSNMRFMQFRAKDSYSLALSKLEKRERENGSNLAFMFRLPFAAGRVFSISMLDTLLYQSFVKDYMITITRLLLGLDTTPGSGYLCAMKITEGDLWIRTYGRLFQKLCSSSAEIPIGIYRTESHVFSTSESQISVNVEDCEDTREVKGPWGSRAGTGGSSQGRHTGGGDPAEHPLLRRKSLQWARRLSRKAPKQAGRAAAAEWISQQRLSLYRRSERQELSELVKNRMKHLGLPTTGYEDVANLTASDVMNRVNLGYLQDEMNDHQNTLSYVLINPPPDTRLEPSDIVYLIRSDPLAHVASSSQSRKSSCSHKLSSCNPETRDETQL
The data set is described as follows: FluxOR potassium ion channel assay in HEK-Slack cells. Format: cell-based. Particulars: for EC50: HEK-Slack cells, Na+-free assay buffer, mean (95% confidence interval). The procedure: The functional activity of this series of compounds against human Slack was determined using a cell‐based FluxOR potassium ion channel assay in cultured HEK293 cells stably expressing human Slack (herein referred to as HEK‐Slack cells) and a Na^+‐free assay buffer to prevent compound‐independent Slack activation by monovalent cations.^[ [14], [24] ^] […] Of the 114 newly synthesized compounds, 31 acted as Slack activators to varying extents. Accordingly, we deemed eight of these as the most interesting candidates.
To determine the Slack‐activating efficacy and potency of the novel compounds, a commercial FluxOR potassium ion channel assay (#10 017; Invitrogen) was used. HEK‐Slack cells were plated at a density of 50 000 cells per well on a poly‐D‐lysine coated (75 µg mL^−1, Sigma–Aldrich) 96‐well, black‐walled microplate with clear bottom (#655 090; Greiner Bio‐One) in DMEM (100 µL per well) containing 10% FBS and 1% penicillin/streptomycin 24 h prior to assaying. In the initial experiments shown in Figure S3A–F (Supporting Information), HEK‐Slack cells were plated at a density of 100 000 cells/well 48 h prior to the assay. On the day of the experiment, the cells were loaded with FluxOR dye according to the manufacturer's protocol. A Na^+‐free assay buffer, adjusted to pH 7.4 with KOH, containing 140 mM choline chloride, 5 mM KCl, 2 mM CaCl2, 2 mM MgSO4, 10 mM HEPES, and 5.55 mM glucose was used. To reduce background fluorescence, all assay components were complemented with a 10% BackDrop Background Suppressor (#B10511; Invitrogen).
All compounds were prepared as a 333 mM stock in DMSO and diluted on the experimental day to a final concentration of 100, 50, 25, 12.5, 6.25, 3.125, or 1.5625 µM in an assay buffer with DMSO adjusted to 0.03%. Before treatment, the cells were washed, and the medium was exchanged for the assay buffer. In a total volume of 90 µL per well, the cells were then incubated for 30 min at 37 °C with compounds at the indicated concentrations, or 0.03% DMSO alone as the vehicle. […] Fluorescence was measured using an Infinite M200 microplate reader (Tecan) with excitation at 485 nm (9 nm bandwidth) and emission at 525 nm (20 nm bandwidth) in the bottom read mode. First, the baseline fluorescence of the individual wells was established. Thereafter cells were stimulated with 20 µL Tl2SO4 (5 mM) solution injected at 100 µL s^−1, and fluorescence was further recorded for 100 s. Assays were run in triplicate. For all time points, the ratio of fluorescence to baseline fluorescence was calculated first for individual wells, and the average was then used.
Dose‐response curves comprising six concentrations were obtained in triplets using fluorescence/fluorescenceBaseline ratios at the 100th s.

A further data set addresses T2, human D2S receptor (Homo sapiens, UniProt P14416).
T2 construct: expressed in transfected cells; host or cells: CHO
The data set is described as follows: [3H]-spiperone competition binding assay, D2. Particulars: mean [CI 95%]. The procedure: (§1) CHO cells stably expressing human dopamine D2short (D2R) and D3 receptor (D3R) were washed and harvested using PBS. […] The cell membrane homogenate was centrifuged (20 000 × g, 20 min, 4 °C), and the resulting cell pellet was resuspended in the binding buffer. Crude membrane extracts were kept at −80 °C until use. Before starting the experiments, cell membranes were thawed, homogenized by sonication (3 × 10 s), and stored in an ice‐cold binding buffer. […] Assays were performed at least in triplicate with appropriate concentrations ranging from 0.01 nM to 100 µM of the test compound. Non‐specific binding was determined using 10 µM haloperidol. By filtering through GF/B filters pretreated with 0.3% (m/v) polyethyleneimine, the bound radioligand was separated from free radioligand using a cell harvester. Radioactivity was measured using liquid scintillation counting. Data were evaluated using the GraphPad Prism 9 software (San Diego, CA, USA) with a nonlinear regression fit.

The next data set concerns the target T3, human D3 receptor (Homo sapiens, UniProt P35462).
T3 construct: expressed in transfected cells; host or cells: CHO
The data set can be described thus: [3H]-spiperone competition binding assay, D3. The note with it: mean [CI 95%]. Here is the method:
as §1

The nature of data set [1]: Metabolic stability assay in rat liver microsomes. Format: in vitro ADME. The note with it: 10 µM, 15, 30 and 60 min. The procedure:
We next assessed the metabolic stability of these compounds (10 µM) in rat liver microsomes (Figure 2A). […] Therefore, we assumed that the occupation of metabolically labile sites at the aromatic core and the reduction in electron density at the oxidizable nitrogen atom of the piperazine ring might increase metabolic stability. Indeed, both the introduction of fluorine at R^2 and the introduction of an electron‐withdrawing carboxylic acid linker at R^3 improved metabolic stability. The substitution of chlorine with a trifluoromethyl group at R^1 was also beneficial. In contrast, homopiperazine and hydroxy linkers were metabolically labile.
The solubilized test compound (5 µL, final concentration 10 µM) was preincubated at 37 °C in 432 µL phosphate buffer (0.1 M, pH 7.4) together with 50 µL NADPH regenerating system (30 mM glucose‐6‐phosphate, 4 U mL^−1 glucose 6‐phosphate dehydrogenase, 10 mM NADP, and 30 mM MgCl2). After 5 min, the reaction started upon the addition of 13 µL of microsome mix from the liver of Sprague‐Dawley rats (Invitrogen; 20 mg protein per mL in 0.1 M phosphate buffer) in a shaking water bath at 37 °C. The reaction was stopped by adding 500 µL ice‐cold methanol at 0, 15, 30, and 60 min. The samples were centrifuged at 5000 × g for 5 min at 4 °C and the test compound was quantified from the supernatants by HPLC; the composition of the mobile phase was adapted to the test compound in a range of MeOH 40−90% and water (0.1% formic acid) 10−60%. Flow rate: 1 mL min^−1; stationary phase: Purospher STAR, RP18, 5 µm, 125 × 4; precolumn: Purospher STAR, RP18, 5 µm, 4 × 4; detection wavelength: 254 and 280 nm; injection volume: 50 µL. Control samples were used to evaluate the stability of the test compounds in the reaction mixture. The first control was without NADPH, which is needed for the enzymatic activity of the microsomes, the second control was with inactivated microsomes (incubated for 20 min at 90 °C), and the third control was without the test compound (to determine the baseline). The amounts of test compounds were quantified using an external calibration curve.
(Liver microsomes are vesicles of endoplasmic reticulum, rich in cytochrome P450 enzymes.)

The subject of the next data set is mice. The data set is described as follows: Pulse oximetry in conscious, freely moving mice. The note with it: 10 mg kg−1 i.p., observation period of 30 min. The procedure: To measure cardiovascular function, a pulse oximeter (MouseOX Plus, Starr Life Sciences Corp.) was used in conscious, freely moving mice. After three consecutive days of habituating the mice to the collar clip for at least 30 min, baseline measurements were performed. […] All the datasets were sampled at 1 Hz, error‐corrected according to the manufacturer's instructions, and averaged over 300 s for each time point.

For another data set, the system named is HEK293 cells. The data set is described as follows: Live-cell high-content cytotoxicity multiplex assay. Format: cell-based. Particulars: 100 µM, 6 h. Here is the method: To explore whether the compounds affected general cell functions, we performed a live‐cell high‐content assay that allowed for the simultaneous investigation of cellular viability, compound precipitation, and maintenance of membrane integrity and mitochondrial mass.^[ [25] ^]
To assess cell viability, a live cell high‐content screen was performed in HEK293T cells as described previously.^[ [25] ^] In brief, HEK293T cells (ATCC CRL‐1573) were cultured in DMEM plus L‐glutamine (high glucose) supplemented by 10% FBS (Gibco) and penicillin/streptomycin (Gibco). Cells were seeded at a density of 1500 cells/well in 384 well plates in culture medium (cell culture microplate, PS, f‐bottom, µClear, 781 091; Greiner). Cells were stained simultaneously with 60 nM Hoechst33342 (Thermo Scientific), 75 nM Mitotracker red (Invitrogen), 0.3 µL per well annexin V Alexa Fluor 680 conjugate (Invitrogen), and 25 nL per well BioTracker 488 green microtubule cytoskeleton dye (EMD Millipore). The fluorescence and cellular shape were measured after 6 h of compound exposure using a CQ1 high‐content confocal microscope (Yokogawa). […] Images were analyzed using the CellPathfinder software (Yokogawa). Cells were detected and gated in different cell populations as described previously^[ [47] ^] using a machine learning‐based algorithm. Briefly, compound precipitation was detected as Hoechst high‐intensity objects. […]

T2 sequence (P14416 1-414 isoform P14416-2): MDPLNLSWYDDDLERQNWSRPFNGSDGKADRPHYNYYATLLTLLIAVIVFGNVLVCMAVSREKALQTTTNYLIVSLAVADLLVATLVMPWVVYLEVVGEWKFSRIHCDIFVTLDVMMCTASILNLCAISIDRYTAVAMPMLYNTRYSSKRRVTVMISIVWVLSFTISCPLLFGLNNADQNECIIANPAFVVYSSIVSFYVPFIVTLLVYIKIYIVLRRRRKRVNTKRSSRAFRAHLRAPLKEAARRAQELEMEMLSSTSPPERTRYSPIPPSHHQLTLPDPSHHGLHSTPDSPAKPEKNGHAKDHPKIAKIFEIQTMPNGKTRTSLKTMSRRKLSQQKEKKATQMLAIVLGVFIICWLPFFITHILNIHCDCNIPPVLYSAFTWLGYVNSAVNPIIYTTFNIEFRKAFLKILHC
T3 sequence (P35462 whole entry): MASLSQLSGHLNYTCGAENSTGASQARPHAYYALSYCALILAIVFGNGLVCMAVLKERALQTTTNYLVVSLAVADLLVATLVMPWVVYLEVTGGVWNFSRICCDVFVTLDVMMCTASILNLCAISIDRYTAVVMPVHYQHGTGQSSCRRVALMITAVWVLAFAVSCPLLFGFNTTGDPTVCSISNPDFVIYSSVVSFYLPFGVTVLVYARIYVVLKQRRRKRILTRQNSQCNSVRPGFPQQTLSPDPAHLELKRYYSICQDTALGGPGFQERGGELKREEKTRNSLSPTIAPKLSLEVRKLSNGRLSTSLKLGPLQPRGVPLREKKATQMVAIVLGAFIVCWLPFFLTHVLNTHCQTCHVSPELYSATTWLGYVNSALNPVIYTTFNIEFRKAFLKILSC

Turning to `O=C(O)COCCN1CCCN(C2=Nc3ccccc3Oc3ccc(C(F)(F)F)cc32)CC1` [Compound 8], the Emax on human Slack was 186%. Further, a half-maximal response on human Slack (EC50) required 50.9 µM. Besides, the Ki came to 0.134 µM on human D2S receptor and 0.421 µM at human D3 receptor.
At human Slack, `OCCOCCN1CCN(C2=Nc3ccccc3Sc3ccc(Cl)cc32)CC1` [Compound 5] returned an Emax of 87.4% and an EC50 of 30 µM. At human D2S receptor, the Ki turned out to be 0.0449 µM. The molecule further registered a Ki on human D3 receptor of 0.0634 µM.
Take `O=C(O)COCCN1CCN(C2=Nc3ccccc3Oc3ccc(C(F)(F)F)cc32)CC1` [Compound 7]: on human Slack, the maximal effect (Emax) was found to be 177% and the EC50 amounted to 62.5 µM. In data set [1], the metabolic stability result is reported as “highest metabolic stabilities”. The molecule also yielded a Ki at human D2S receptor of 0.0274 µM. Moreover, on human D3 receptor, affinity was put at a Ki of 0.0407 µM.
On to `CN1CCN(C2=Nc3cc(F)ccc3Oc3ccc(C(F)(F)F)cc32)CC1` [Compound 3], for which, on human Slack, the Emax is 199% and a half-maximal effect (EC50) was put at 41.5 µM. Also, the affinity on human D2S receptor corresponds to a Ki of 0.00289 µM. At human D3 receptor, the Ki is 0.0226 µM.
Regarding `CN1CC[C@]23c4c5ccc(O)c4O[C@H]2[C@@H](O)C=C[C@H]3[C@H]1C5` [morphine, morphine sulfate pentahydrate, reference compound], in the data set on mice, the breath rate result is on record as “reduced” and the heart rate entry is given as “reduced”.
Turning to `CN1CCCN(C2=Nc3ccccc3Oc3ccc(C(F)(F)F)cc32)CC1` [Compound 2], at human Slack, the Emax was 63.1% and it took 3.2 µM to reach a half-maximal effect (EC50). On human D2S receptor, this molecule came in with a Ki of 0.0828 µM. This molecule had a Ki on human D3 receptor of 0.0624 µM.
Consider `OCCN1CCN(C2=Nc3ccccc3Oc3ccc(Cl)cc32)CC1` [Compound 4], for which the Emax at human Slack was 223%. In addition, on human Slack, the EC50 came to 26 µM. In addition, the Ki on human D2S receptor is 0.05 µM; at human D3 receptor it was 0.176 µM.
As to `CN1CCN(C2=Nc3ccccc3Oc3ccc(C(F)(F)F)cc32)CC1` [Compound 1], on human Slack, the Emax came to 114%. The molecule also had a 50% effective concentration (EC50) at human Slack of 6.3 µM. Besides, the compound precipitation result in the data set on HEK293 cells was “compound precipitation was only detected”. The Ki is 0.0036 µM at human D2S receptor and 0.0122 µM at human D3 receptor.

The values above are taken from article PMC11022729 (Advanced Science, 2024).
